Results taken from patent US8192962B2, “Processes for detecting toxic substances” (Daikin Industries, Ltd., priority 2001, dated 2012).

Test system: Metabolism protein genes
Assay: DNA chip mRNA expression in yeast, metabolism protein genes (Table 7)
Assay type: cell-based, Saccharomyces cerevisiae S288C
In short: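 Whole-genome yeast DNA chip hybridization (65° C., >12 h) of Cy-labeled cDNA from S288C cells exposed 2 h at 25° C. to a sub-lethal toxicant dose in YPD; value is intensity relative to chemical-free control.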

manganese ethylenebis(dithiocarbamate) [(8)]
2.2: The level of expressed mRNA in the presence of chemical substance/The level of expressed mRNA in the absence of chemical substance (yeast gene YGR256W)
1.4: level of expressed mRNA in the presence/in the absence of chemical substance (yeast gene YDR400W) | The level of expressed mRNA in the presence of chemical substance/The level of expressed mRNA in the absence of chemical substance (yeast gene YGR037C)
0.6: The level of expressed mRNA in the presence of chemical substance/The level of expressed mRNA in the absence of chemical substance (yeast gene YBR222C) | The level of expressed mRNA in the presence of chemical substance/The level of expressed mRNA in the absence of chemical substance (yeast gene YDR497C) | level of expressed mRNA in the presence/in the absence of chemical substance (yeast gene YEL063C) | level of expressed mRNA in the presence/in the absence of chemical substance (yeast gene YER081W) | level of expressed mRNA in the presence/in the absence of chemical substance (yeast gene YER120W) | level of expressed mRNA in the presence/in the absence of chemical substance (yeast gene YIL006W) | The level of expressed mRNA in the presence of chemical substance/The level of expressed mRNA in the absence of chemical substance (yeast gene YIL154C) | The level of expressed mRNA in the presence of chemical substance/The level of expressed mRNA in the absence of chemical substance (yeast gene YJR148W)
0.4: The level of expressed mRNA in the presence of chemical substance/The level of expressed mRNA in the absence of chemical substance (yeast gene YGL022W) | level of expressed mRNA in the presence/in the absence of chemical substance (yeast gene YGR204W) | The level of expressed mRNA in the presence of chemical substance/The level of expressed mRNA in the absence of chemical substance (yeast gene YHR137W)
1.1: The level of expressed mRNA in the presence of chemical substance/The level of expressed mRNA in the absence of chemical substance (yeast gene YAL038W) | The level of expressed mRNA in the presence of chemical substance/The level of expressed mRNA in the absence of chemical substance (yeast gene YCL009C) | level of expressed mRNA in the presence/in the absence of chemical substance (yeast gene YER015W) | The level of expressed mRNA in the presence of chemical substance/The level of expressed mRNA in the absence of chemical substance (yeast gene YGL209W) | The level of expressed mRNA in the presence of chemical substance/The level of expressed mRNA in the absence of chemical substance (yeast gene YGR055W) | The level of expressed mRNA in the presence of chemical substance/The level of expressed mRNA in the absence of chemical substance (yeast gene YIL045W) | The level of expressed mRNA in the presence of chemical substance/The level of expressed mRNA in the absence of chemical substance (yeast gene YJL068C)
0.5: The level of expressed mRNA in the presence of chemical substance/The level of expressed mRNA in the absence of chemical substance (yeast gene YBR023C)
2.4: The level of expressed mRNA in the presence of chemical substance/The level of expressed mRNA in the absence of chemical substance (yeast gene YCL064C)
0.7: The level of expressed mRNA in the presence of chemical substance/The level of expressed mRNA in the absence of chemical substance (yeast gene YAL012W) | The level of expressed mRNA in the presence of chemical substance/The level of expressed mRNA in the absence of chemical substance (yeast gene YBR029C) | The level of expressed mRNA in the presence of chemical substance/The level of expressed mRNA in the absence of chemical substance (yeast gene YDR019C) | level of expressed mRNA in the presence/in the absence of chemical substance (yeast gene YDR408C) | The level of expressed mRNA in the presence of chemical substance/The level of expressed mRNA in the absence of chemical substance (yeast gene YFL031W) | The level of expressed mRNA in the presence of chemical substance/The level of expressed mRNA in the absence of chemical substance (yeast gene YGL126W) | level of expressed mRNA in the presence/in the absence of chemical substance (yeast gene YGR191W) | The level of expressed mRNA in the presence of chemical substance/The level of expressed mRNA in the absence of chemical substance (yeast gene YJL172W) | level of expressed mRNA in the presence/in the absence of chemical substance (yeast gene YJR143C)
1.9: level of expressed mRNA in the presence/in the absence of chemical substance (yeast gene YJL216C)
1.6: The level of expressed mRNA in the presence of chemical substance/The level of expressed mRNA in the absence of chemical substance (yeast gene YFL030W) | The level of expressed mRNA in the presence of chemical substance/The level of expressed mRNA in the absence of chemical substance (yeast gene YJR137C)
18.0: The level of expressed mRNA in the presence of chemical substance/The level of expressed mRNA in the absence of chemical substance (yeast gene YFL057C)
18.5: The level of expressed mRNA in the presence of chemical substance/The level of expressed mRNA in the absence of chemical substance (yeast gene YFL056C)
1.8: The level of expressed mRNA in the presence of chemical substance/The level of expressed mRNA in the absence of chemical substance (yeast gene YJL031C)
0.9: level of expressed mRNA in the presence/in the absence of chemical substance (yeast gene YBR003W) | level of expressed mRNA in the presence/in the absence of chemical substance (yeast gene YCR034W) | level of expressed mRNA in the presence/in the absence of chemical substance (yeast gene YDR178W) | level of expressed mRNA in the presence/in the absence of chemical substance (yeast gene YDR284C) | The level of expressed mRNA in the presence of chemical substance/The level of expressed mRNA in the absence of chemical substance (yeast gene YDR502C)
0.8: level of expressed mRNA in the presence/in the absence of chemical substance (yeast gene YCR010C) | The level of expressed mRNA in the presence of chemical substance/The level of expressed mRNA in the absence of chemical substance (yeast gene YCR048W) | The level of expressed mRNA in the presence of chemical substance/The level of expressed mRNA in the absence of chemical substance (yeast gene YER026C) | The level of expressed mRNA in the presence of chemical substance/The level of expressed mRNA in the absence of chemical substance (yeast gene YER178W) | level of expressed mRNA in the presence/in the absence of chemical substance (yeast gene YFL011W) | level of expressed mRNA in the presence/in the absence of chemical substance (yeast gene YGL012W) | The level of expressed mRNA in the presence of chemical substance/The level of expressed mRNA in the absence of chemical substance (yeast gene YGL248W) | level of expressed mRNA in the presence/in the absence of chemical substance (yeast gene YHR025W) | level of expressed mRNA in the presence/in the absence of chemical substance (yeast gene YHR123W) | level of expressed mRNA in the presence/in the absence of chemical substance (yeast gene YJR077C)
1.7: level of expressed mRNA in the presence/in the absence of chemical substance (yeast gene YDR277C) | The level of expressed mRNA in the presence of chemical substance/The level of expressed mRNA in the absence of chemical substance (yeast gene YIR034C)
1.3: level of expressed mRNA in the presence/in the absence of chemical substance (yeast gene YBR011C) | level of expressed mRNA in the presence/in the absence of chemical substance (yeast gene YDR050C) | level of expressed mRNA in the presence/in the absence of chemical substance (yeast gene YDR073W) | level of expressed mRNA in the presence/in the absence of chemical substance (yeast gene YDR123C) | The level of expressed mRNA in the presence of chemical substance/The level of expressed mRNA in the absence of chemical substance (yeast gene YDR516C) | The level of expressed mRNA in the presence of chemical substance/The level of expressed mRNA in the absence of chemical substance (yeast gene YER053C) | The level of expressed mRNA in the presence of chemical substance/The level of expressed mRNA in the absence of chemical substance (yeast gene YHR111W) | The level of expressed mRNA in the presence of chemical substance/The level of expressed mRNA in the absence of chemical substance (yeast gene YHR176W) | level of expressed mRNA in the presence/in the absence of chemical substance (yeast gene YHR210C) | The level of expressed mRNA in the presence of chemical substance/The level of expressed mRNA in the absence of chemical substance (yeast gene YIL107C) | The level of expressed mRNA in the presence of chemical substance/The level of expressed mRNA in the absence of chemical substance (yeast gene YJL088W)
1.0: level of expressed mRNA in the presence/in the absence of chemical substance (yeast gene YBR020W) | The level of expressed mRNA in the presence of chemical substance/The level of expressed mRNA in the absence of chemical substance (yeast gene YBR183W) | The level of expressed mRNA in the presence of chemical substance/The level of expressed mRNA in the absence of chemical substance (yeast gene YCR098C) | level of expressed mRNA in the presence/in the absence of chemical substance (yeast gene YDR483W) | The level of expressed mRNA in the presence of chemical substance/The level of expressed mRNA in the absence of chemical substance (yeast gene YER096W) | The level of expressed mRNA in the presence of chemical substance/The level of expressed mRNA in the absence of chemical substance (yeast gene YFR047C) | level of expressed mRNA in the presence/in the absence of chemical substance (yeast gene YGL115W) | level of expressed mRNA in the presence/in the absence of chemical substance (yeast gene YGR096W) | The level of expressed mRNA in the presence of chemical substance/The level of expressed mRNA in the absence of chemical substance (yeast gene YGR282C) | level of expressed mRNA in the presence/in the absence of chemical substance (yeast gene YGR288W) | The level of expressed mRNA in the presence of chemical substance/The level of expressed mRNA in the absence of chemical substance (yeast gene YIL155C) | The level of expressed mRNA in the presence of chemical substance/The level of expressed mRNA in the absence of chemical substance (yeast gene YIR036C) | The level of expressed mRNA in the presence of chemical substance/The level of expressed mRNA in the absence of chemical substance (yeast gene YJL099W) | level of expressed mRNA in the presence/in the absence of chemical substance (yeast gene YJL121C)
3.4: The level of expressed mRNA in the presence of chemical substance/The level of expressed mRNA in the absence of chemical substance (yeast gene YFL014W)
1.5: The level of expressed mRNA in the presence of chemical substance/The level of expressed mRNA in the absence of chemical substance (yeast gene YER069W) | level of expressed mRNA in the presence/in the absence of chemical substance (yeast gene YJL167W) | The level of expressed mRNA in the presence of chemical substance/The level of expressed mRNA in the absence of chemical substance (yeast gene YJL219W)
1.2: level of expressed mRNA in the presence/in the absence of chemical substance (yeast gene YDR345C) | level of expressed mRNA in the presence/in the absence of chemical substance (yeast gene YGL205W) | The level of expressed mRNA in the presence of chemical substance/The level of expressed mRNA in the absence of chemical substance (yeast gene YGR194C) | The level of expressed mRNA in the presence of chemical substance/The level of expressed mRNA in the absence of chemical substance (yeast gene YHR174W)
0.2: The level of expressed mRNA in the presence of chemical substance/The level of expressed mRNA in the absence of chemical substance (yeast gene YDR380W)
2.3: The level of expressed mRNA in the presence of chemical substance/The level of expressed mRNA in the absence of chemical substance (yeast gene YBR256C)
